We go through 18 compounds from patent publication US9907790B2, “Solid forms of an ASK1 inhibitor” (Gilead Sciences, Inc., priority 2014, dated 2018).

A short description of the first data set: Form change on heating, drying or exposure to ambient conditions. Conditions: ambient temperature and humidity / storage at ambient conditions. Type of data set: physicochemical. The text has this:
Form V has only been truly isolated by growth of single crystals.
Isolated solids were dried with filter paper to remove residual solvents and analyzed by DSC, TGA and KF. […] (FIG. 45).
The sample was stirred for more than two months before being placed into storage without agitation and at ambient conditions. […] The material was collected by vacuum filtration and dried under ambient conditions. […] (FIG. 48).
Take `Cc1cc(F)c(C(=O)Nc2cccc(-c3nncn3C(C)C)n2)cc1-n1cnc(C2CC2)c1` [Compound I Form VIII, 5-(4-cyclopropyl-1H-imidazol-1-yl)-N-(6-(4-isopropyl-4H-1,2,4-triazol-3-yl)pyridin-2-yl)-2-fluoro-4-methylbenzamide]: the “form change at ambient conditions” value is “rapidly loses water and converts to Compound I Form VI”.

The same data set, now with this note: drying (air-drying at RT).
On to `Cc1cc(F)c(C(=O)Nc2cccc(-c3nncn3C(C)C)n2)cc1-n1cnc(C2CC2)c1` [Compound I Form V, 5-(4-cyclopropyl-1H-imidazol-1-yl)-N-(6-(4-isopropyl-4H-1,2,4-triazol-3-yl)pyridin-2-yl)-2-fluoro-4-methylbenzamide], for which the “form change upon drying” value is “readily desolvates to Compound I Form II”.

The data set is the same for the next values; noted with them: drying (air-drying at RT); listed as Form V.
Turning to `Cc1cc(F)c(C(=O)Nc2cccc(-c3nncn3C(C)C)n2)cc1-n1cnc(C2CC2)c1` [Compound I Form V, 5-(4-cyclopropyl-1H-imidazol-1-yl)-N-(6-(4-isopropyl-4H-1,2,4-triazol-3-yl)pyridin-2-yl)-2-fluoro-4-methylbenzamide], the “form change upon drying” value was “converting to Form II”.

A further data set is described as follows: High humidity stress test at 75% RH/RT. Format: physicochemical.
Conditions: not given
For the compound `CCS(=O)(=O)O.Cc1cc(F)c(C(=O)Nc2cccc(-c3nncn3C(C)C)n2)cc1-n1cnc(C2CC2)c1` [Compound I Esylate Form I, 5-(4-cyclopropyl-1H-imidazol-1-yl)-N-(6-(4-isopropyl-4H-1,2,4-triazol-3-yl)pyridin-2-yl)-2-fluoro-4-methylbenzamide esylate], the “deliquescence in high humidity stress test” value (shortened to “deliquescence”) was “did not show any evidence of deliquescence”.

In the case of “5-(4-cyclopropyl-1H-imidazol-1-yl)-N-(6-(4-isopropyl-4H-1,2,4-triazol-3-yl)pyridin-2-yl)-2-fluoro-4-methylbenzamide glutarate [Compound I Glutarate Form I]”, the “deliquescence” value is listed as “did not show any evidence of deliquescence”.

Take `Cc1cc(F)c(C(=O)Nc2cccc(-c3nncn3C(C)C)n2)cc1-n1cnc(C2CC2)c1.O=C(O)CO` [Compound I Glycolate Form I, 5-(4-cyclopropyl-1H-imidazol-1-yl)-N-(6-(4-isopropyl-4H-1,2,4-triazol-3-yl)pyridin-2-yl)-2-fluoro-4-methylbenzamide glycolate]: the “deliquescence” value was “did not show any evidence of deliquescence”.

Consider “5-(4-cyclopropyl-1H-imidazol-1-yl)-N-(6-(4-isopropyl-4H-1,2,4-triazol-3-yl)pyridin-2-yl)-2-fluoro-4-methylbenzamide gentisate [Compound I Gentisate Form II]”, for which the “deliquescence” value is given as “did not show any evidence of deliquescence”.

In the case of `Cc1cc(F)c(C(=O)Nc2cccc(-c3nncn3C(C)C)n2)cc1-n1cnc(C2CC2)c1.Cl` [Compound I HCl Form I, 5-(4-cyclopropyl-1H-imidazol-1-yl)-N-(6-(4-isopropyl-4H-1,2,4-triazol-3-yl)pyridin-2-yl)-2-fluoro-4-methylbenzamide hydrochloride], the “deliquescence” value is reported as “did not show any evidence of deliquescence”.

For `Cc1cc(F)c(C(=O)Nc2cccc(-c3nncn3C(C)C)n2)cc1-n1cnc(C2CC2)c1.O=C(O)/C=C/C(=O)O` [Compound I Fumarate Form I, 5-(4-cyclopropyl-1H-imidazol-1-yl)-N-(6-(4-isopropyl-4H-1,2,4-triazol-3-yl)pyridin-2-yl)-2-fluoro-4-methylbenzamide fumarate], the “deliquescence” value was “did not show any evidence of deliquescence”.

On to `Cc1cc(F)c(C(=O)Nc2cccc(-c3nncn3C(C)C)n2)cc1-n1cnc(C2CC2)c1.O=C(O)C(O)C(O)C(=O)O` [Compound I L-Tartrate Form I, 5-(4-cyclopropyl-1H-imidazol-1-yl)-N-(6-(4-isopropyl-4H-1,2,4-triazol-3-yl)pyridin-2-yl)-2-fluoro-4-methylbenzamide L-tartrate], for which the “deliquescence” value is “did not show any evidence of deliquescence”.

Turning to `CS(=O)(=O)O.Cc1cc(F)c(C(=O)Nc2cccc(-c3nncn3C(C)C)n2)cc1-n1cnc(C2CC2)c1` [Compound I Mesylate Form I, 5-(4-cyclopropyl-1H-imidazol-1-yl)-N-(6-(4-isopropyl-4H-1,2,4-triazol-3-yl)pyridin-2-yl)-2-fluoro-4-methylbenzamide mesylate], the “deliquescence” value is listed as “did not show any evidence of deliquescence”.

Take `Cc1cc(F)c(C(=O)Nc2cccc(-c3nncn3C(C)C)n2)cc1-n1cnc(C2CC2)c1.Cc1ccc(S(=O)(=O)O)cc1` [Compound I Tosylate Form I, 5-(4-cyclopropyl-1H-imidazol-1-yl)-N-(6-(4-isopropyl-4H-1,2,4-triazol-3-yl)pyridin-2-yl)-2-fluoro-4-methylbenzamide tosylate]: the “deliquescence” value was “did not show any evidence of deliquescence”.

On to “5-(4-cyclopropyl-1H-imidazol-1-yl)-N-(6-(4-isopropyl-4H-1,2,4-triazol-3-yl)pyridin-2-yl)-2-fluoro-4-methylbenzamide propyl gallate [Compound I Propyl Gallate Form I]”, for which the “deliquescence” value was “did not show any evidence of deliquescence”.

As for “5-(4-cyclopropyl-1H-imidazol-1-yl)-N-(6-(4-isopropyl-4H-1,2,4-triazol-3-yl)pyridin-2-yl)-2-fluoro-4-methylbenzamide edisylate [Compound I Edisylate Form I]”, the “deliquescence” value is listed as “did not show any evidence of deliquescence”.

As to `Cc1cc(F)c(C(=O)Nc2cccc(-c3nncn3C(C)C)n2)cc1-n1cnc(C2CC2)c1.O=C(O)CCC(=O)O` [Compound I Succinate Form I, 5-(4-cyclopropyl-1H-imidazol-1-yl)-N-(6-(4-isopropyl-4H-1,2,4-triazol-3-yl)pyridin-2-yl)-2-fluoro-4-methylbenzamide succinate], the “deliquescence” value is “did not show any evidence of deliquescence”.

In the case of `Cc1cc(F)c(C(=O)Nc2cccc(-c3nncn3C(C)C)n2)cc1-n1cnc(C2CC2)c1.O=C(O)C(=O)O` [Compound I Oxalate Form I, 5-(4-cyclopropyl-1H-imidazol-1-yl)-N-(6-(4-isopropyl-4H-1,2,4-triazol-3-yl)pyridin-2-yl)-2-fluoro-4-methylbenzamide oxalate], the “deliquescence” value is listed as “did not show any evidence of deliquescence”.

For the compound `Cc1cc(F)c(C(=O)Nc2cccc(-c3nncn3C(C)C)n2)cc1-n1cnc(C2CC2)c1.O=C(O)/C=C\C(=O)O` [Compound I Maleate Form I, 5-(4-cyclopropyl-1H-imidazol-1-yl)-N-(6-(4-isopropyl-4H-1,2,4-triazol-3-yl)pyridin-2-yl)-2-fluoro-4-methylbenzamide maleate], the “deliquescence” value was “did not show any evidence of deliquescence”.

On to `Cc1cc(F)c(C(=O)Nc2cccc(-c3nncn3C(C)C)n2)cc1-n1cnc(C2CC2)c1.O=S(=O)(O)O` [Compound I Sulfate Form I, 5-(4-cyclopropyl-1H-imidazol-1-yl)-N-(6-(4-isopropyl-4H-1,2,4-triazol-3-yl)pyridin-2-yl)-2-fluoro-4-methylbenzamide sulfate], for which the “deliquescence” value was “did not show any evidence of deliquescence”.

A further data set is described as follows: Stable form screen of Compound I (suspension in solvents at RT, solids analysed by XRPD). Type of data set: physicochemical. The note with it: starting from Compound I Form I, suspended in DCM at RT. The method, then:
Compound I Form I was suspended with stirring in capped glass vials at RT. Samples from the suspensions were centrifuged/filtered and the isolated solids and liquids were analyzed. Solids were analyzed by XRPD and liquids were analyzed for solubility by […]. Sampling and analysis were performed after one day and greater than fourteen days.
Turning to `Cc1cc(F)c(C(=O)Nc2cccc(-c3nncn3C(C)C)n2)cc1-n1cnc(C2CC2)c1` [Compound I Form I, 5-(4-cyclopropyl-1H-imidazol-1-yl)-N-(6-(4-isopropyl-4H-1,2,4-triazol-3-yl)pyridin-2-yl)-2-fluoro-4-methylbenzamide], the “14+ Day XRPD” value is “mixture of Compound I Form II and Compound I Form V”; the “24 Hour XRPD” value was “mixture of Forms II and V”.
